{
  "source": "patent US7943330B2",
  "about": "“Tailored glycoproteomic methods for the sequencing, mapping and identification of cellular glycoproteins” (Academia Sinica, priority 2007, dated 2011)",
  "key": {"[1]": {"tested_on": "MCF7 (breast adenocarcinoma) cells", "test": "Confocal microscopy of intracellular labeling of alkynyl-tagged glycans", "assay_type": "cell-based, Human", "details": "3-day incubation, biotin probe and fluorescein-conjugated streptavidin, overlaps with WGA (Golgi) signal", "experimental": "(§1) To visualize the localization of alkyne-tagged glycans, adherent cells were grown on slides in the presence or absence of alkynyl sugar analogs or precursors. After a 3-day-incubation, cells attached to the slides are fixed, permeabilized, and labeled with either a biotin probe or fluorogenic coumarin probe for fluorescent signal analysis with confocal microscopy, as shown in FIG. 3C. For comparison, samples are also stained with wheat germ agglutinin (WGA, a Golgi marker).\n(§2) Fluorescent Labeling in Cells: Human hepatocellular carcinoma cells (Hep3B) or breast adenocarcinoma cells (MCF7) were seeded onto six-well plates (3×10^5/2 ml per well) containing glass coverslips, and were cultivated in 10% FCS/DMEM or 10% FCS/RPMI medium 1640. Growth medium was supplemented with a control sugar (200 micromolar Fuc or 25 micromolar ManNAc) and an alkynyl-modified sugar (Fucyne or ManNAcyne at the same concentration as control sugars). After growing for 3 days, cells on coverslips were fixed and permeabilized with acetone for 10 min, then subjected to the probe labeling reaction: 0.1 mM biotin probe or fluorogenic coumarin probe, 0.1 mM Tris-triazoleamine catalyst, 1 mM CuSO4, 2 mM sodium ascorbate, in PBS, at room temperature for 30 min. Subsequently, the fixed and labeled cells were rinsed with PBS and stained with Alexa Fluor 594-conjugated WGA lectin (2 micrograms/ml in 5% BSA/PBS) and/or fluorescein-conjugated streptavidin (2 micrograms/ml in 5% BSA/PBS) at room temperature for 30 min. Hoechst 33342 (10 microgram/ml in PBS) was used to stain nuclei. Fluorescent images were captured by Bio-Rad (Carl Zeiss) Radiance 2100 Rainbow laser scanning confocal microscopy system."}, "Jurkat cells": {"tested_on": "Jurkat cells", "test": "Flow cytometry of cell-surface CuAAC labeling of alkynyl-tagged glycans", "assay_type": "cell-based", "details": "for cell-surface fluorescent labeling: CuAAC with 3-azido-7-hydroxycoumarin probe", "experimental": "Cell culture: Breast cancer MCF-7 and Jurkat cells were cultivated (2×10^6/10 ml) in RPMI 1640 medium (Invitrogen) supplemented with 10% FCS. Peracetylated alkynyl sugars Fucyne (200 uM) and ManNAcyne (25 uM) or native control sugars ManNAc for 1 to 3 days at 37° C.\nFlow cytometry analysis: Cells were harvested, washed with 0.1% FCS/PBS, and resuspended (10^6 cells for Jurkat cells; 3×10^5 cells for other cells) in 100 microliters of click reaction solution (0.1 mM biotin probe, 0.1 mM Tris-triazoleamine catalyst, 0.1 mM CuSO4/0.5 mM sodium ascorbate, in PBS). The reaction was incubated at room temperature for 30 min, and then the cells were washed twice with 0.1% FCS/PBS. Cells treated with biotin probe were subsequently stained with fluorescein-conjugated streptavidin (0.5 microgram per sample in 50 microliters of 1% FCS/PBS) for 30 min at 4° C., and washed three times with 1% FCS/PBS. Data were acquired by BD LSR II with FACSDiva software, and were analyzed by CellQuestPro software (BD Biosciences)."}, "[2]": {"tested_on": "cell extracts (soluble lysate fractions)", "test": "SDS/PAGE, Western blot and fluorescence detection of labeled glycoproteins in cell extracts", "assay_type": "cell-based", "details": "for signal by Western blot or fluorescence: control sugars processed under the same click condition; for biotin-labeling signal of proteins by Western blot: lysate clicked with biotin probe, mouse anti-biotin MAb, 200 micromolar Fucyne, 25 micromolar ManNAcyne, 3 days", "experimental": "Immunoblotting (IB) and immunoprecipitation (IP): Cells were seeded at 3×10^6/8 ml per 10-cm dish and treated with control and test sugars (200 micromolar Fuc vs. Fucyne or 25 micromolar ManNAc vs. ManNAcyne) in growth medium at 37° C. After 3 days, cell extracts were prepared by resuspending the cells in 1 ml of lysis buffer (1% Nonidet P-40/150 mM NaCl/protease inhibitor/100 mM sodium phosphate, pH 7.5). Protein extract (1 mg/ml) was labeled for 1 h at room temperature (0.1 mM biotin probe, or fluorogenic coumarin probe, 0.1 mM tris-triazoleamine catalyst, 1 mM CuSO4, and 2 mM sodium ascorbate, in PBS; the azido rhodamine probe was a gift from Benjamin F. Cravatt, The Scripps Research Institute). Labeled protein lysate was resolved by SDS/PAGE. For immunoblotting of biotin-labeled glycoproteins, electrophoresed proteins were transferred onto PVDF membranes, blocked for 20 min with SuperBlock® Blocking Buffer. Blots were either probed for 1 h with anti-biotin MAb (1 microgram/ml), and incubated with peroxidase-conjugated goat anti-mouse IgG (1:7,500 dilution) for 30 min; or probed for 1 h with peroxidase-conjugated anti-biotin Ab (Calbiochem)(1:5000 in SuperBlock). Each step was followed by a wash with 0.02% Tween 20/PBS (PBST). Signal was developed with SuperSignal Chemiluminescent Substrate and detected by exposure to x-ray film. For detecting the coumarin-labeled glycoproteins, gels were examined under 365 nm UV light with a 535+/−50 nm filter. Images were taken by using a BioDoc-It imaging system (UVP). Rhodamine gels were analyzed as described (Speers A E, Cravatt B F (2004) Chem Biol 11:535-546)."}, "[3]": {"tested_on": "plexin B2 in A549 mock, FucT4 and FucT6 cells", "test": "Incorporation of alkynyl fucose into plexin B2 glycans (IP, on-membrane click reaction, streptavidin blot)", "assay_type": "cell-based", "details": "alkynyl fucose-treated mock, stronger in FucT4/6-overexpressing cells, no signal without treatment", "experimental": "Total proteins were extracted from untreated or alkynyl fucose-treated mock control, FucT4 and FucT6 stable cell lines. Proteins ([…]) were dissolved in 500 ml IP buffer (1% NP-40, 150 mM NaCl, 10% glycerol, 50 mM HEPES, pH 7.5 and 1×EDTA-free protease inhibitor cocktail) and precleared with 25 ml protein G beads (GE Healthcare) at 4° C. for 1 h. Precleared proteins extracts were then incubated with 3 mg anti-plexin B2 antibody/25 ml protein G beads at 4° C. for 1 h for overnight. Immunoprecipitates were subjected to SDS-PAGE and the proteins were transferred to PVDF membrane. After blocking with 5% BSA/PBST (0.1% Tween 20/PBS) for 1 h and wash with PBST and PBS sequentially, the protein-side of PVDF membrane was faced down to immerse in click reaction mixture (0.1 mM azido biotin, 0.1 mM Tris-triazoleamine catalyst, 1 mM CuSO4, 2 mM sodium ascorbate; 1 ml for a blot from a mini-gel) and incubated at room temperature for 1 h. After wash with PBST twice, the membrane was probed with peroxidase-conjugated streptavidin for biotin tags on blots.\nComparative profiling of fucosylated N-linked glycoproteins using the GIDmap method disclosed herein was conducted in lung cancer cell line A549 over-expressing either fucosyltransferases (FucT) 4 or 6. […] The biotin signals were then detected by immunoblotting with peroxidase-conjugated streptavidin. […]"}, "cells": {"tested_on": "cells", "test": "Cell toxicity of sugar analogs at the levels used for metabolic incorporation", "assay_type": "cell-based", "details": "compared with azido Fuc analogs of previous approaches; 200 μM fucose precursors, 25 μM sialic acid precursors", "experimental": "In an exemplary implementation of the MOE method disclosed herein, an appropriate cell growth medium is supplemented with a peracetylated version of the CuAAC competent sugars, 25 μM for sialic acid precursors and 200 μM for fucose precursors (although peracetylation increases cellular uptake of sugars, the acetate groups are cleaved by esterases before it is converted to the nucleotide-sugar donor and incorporated into emerging glycans via glycosyltransferases). As shown by the biosynthetic pathways in FIG. 1, the ManNAc derivatives feed directly into de novo synthesis of NeuAc-CMP, whereas, fucose derivatives are incorporated through a salvage pathway for the synthesis of Fuc-GDP. For labeling, the alkyne-tagged cellular glycans, cells and/or cell lysates are treated with an appropriate CuAAC probe (depicted as 6-8 in FIG. 2). Overall, CuAAC is well-suited for functionalizing cellular glycans since it may be performed in aqueous environments, with high chemoselectively, to form stable 1,2,3-triazoles in nearly quantitative yield, starting from inconspicuous and inert azide or alkyne reaction partners. In conjunction the triazole ligand, CuAAc reactions can be executed under very mild and biocompatible conditions, requiring ambient temperature and low reactant concentrations. […] CuAAC is well-suited for end-point analysis, such as flow cytometry and glycoproteomic purposes. […]"}, "[4]": {"tested_on": "Hep3B hepatocellular carcinoma cells", "test": "Confocal microscopy of intracellular labeling of alkynyl-tagged glycans", "assay_type": "cell-based, Human", "details": "3-day incubation; biotin probe and fluorogenic coumarin probe; compared with the Fucyne result", "experimental": "as §1, §2"}},
  "data": [
    {"compound": "C[C@H](O)[C@@H](O)[C@@H](O)[C@H](O)C=O", "note": "[Fuc, Fucose, reference compound]", "values": [
      {"measurement": "intracellular labeling signal (confocal microscopy)", "setting": "[1]", "result": "very low background"},
      {"measurement": "cell-surface fluorescent labeling", "setting": "Jurkat cells", "result": "very low background signals"},
      {"measurement": "signal by Western blot or fluorescence", "setting": "[2]", "result": "little to no signal"}
    ]},
    {"compound": "1,2,3,4-tetraacetyl alkynyl fucose [Fucyne]", "values": [
      {"measurement": "biotin signal of immunoprecipitated plexin B2 after on-membrane CuAAC", "setting": "[3]", "result": "positive signals"},
      {"measurement": "intracellular labeling signal (confocal microscopy)", "setting": "[1]", "result": "strong punctuate-labeling signal"},
      {"measurement": "cell-surface fluorescent labeling", "setting": "Jurkat cells", "result": "significant fluorescent labeling"},
      {"measurement": "toxicity to cells", "setting": "cells", "result": "greatly reduced toxicity"},
      {"measurement": "biotin-labeling signal of proteins by Western blot", "setting": "[2]", "result": "specific biotin-labeling signals were detected"}
    ]},
    {"compound": "C#CCCC(=O)N[C@@H]1C(OC(C)=O)O[C@H](COC(C)=O)[C@@H](OC(C)=O)[C@@H]1OC(C)=O", "note": "(stereo partly shown) [ManNAcyne, 1,3,4,6-tetra-O-acetyl-N-4-pentynoylmannosamine]", "values": [
      {"measurement": "cell-surface labeling signal", "setting": "Jurkat cells; CuAAC-labeled with biotin, detected by fluorescein-conjugated streptavidin, vs control ManNAc", "result": "specific signal on the cell surface"},
      {"measurement": "toxicity to cells", "setting": "cells", "result": "greatly reduced toxicity"},
      {"measurement": "biotin-labeling signal of proteins by Western blot", "setting": "[2]", "result": "specific biotin-labeling signals were detected"}
    ]},
    {"compound": "CC(=O)N[C@@H]1C(O)O[C@H](CO)[C@@H](O)[C@@H]1O", "note": "(stereo partly shown) [ManNAc, N-acetylmannosamine, reference compound]", "values": [
      {"measurement": "intracellular labeling signal (confocal microscopy)", "setting": "[4]", "result": "very low background"},
      {"measurement": "signal by Western blot or fluorescence", "setting": "[2]", "result": "little to no signal"}
    ]}
  ]
}
